Results on 5 compounds are retold here after patent publication US11414432B2, “Condensed bicyclic heterocyclic derivatives as pest control agents” (Bayer Aktiengesellschaft, priority 2018, dated 2022).

Series [1] is described as follows: log P by HPLC on reversed-phase column (C18), acidic range. The class given is physicochemical. The note with it: formic acid in water/acetonitrile, LC-UV. As for the experimental part:
The log P values were determined according to EEC Directive 79/831 Annex V.A8 by HPLC (high-performance liquid chromatography) on a reversed-phase column (C18) using the following methods: ^[a] […] Calibration was carried out using a homologous series of straight-chain alkan-2-ones (having 3 to 16 carbon atoms) with known log P values. The values between successive alkanones are determined by linear regression.

For series [2], the system named is Ctenocephalides felis. Kind of series: Ctenocephalides felis oral test. The class given is in vivo. The note with it: adult cat fleas, oral via citrated cattle blood, 100 ppm, after 2 days. As for the experimental part: Ctenocephalides felis—Oral Test
Solvent: dimethyl sulfoxide
To produce a suitable active compound formulation, 10 mg of active compound are mixed with 0.5 ml of dimethyl sulfoxide. Dilution with citrated cattle blood gives the desired concentration.
About 20 unfed adult cat fleas (Ctenocephalides felis) are placed into a chamber which is closed at the top and bottom with gauze. A metal cylinder whose bottom end is closed with parafilm is placed onto the chamber. The cylinder contains the blood/active compound formulation, which can be imbibed by the fleas through the parafilm membrane.
After 2 days, the kill in % is determined. 100% means that all of the fleas have been killed; 0% means that none of the fleas have been killed.

Series [3] concerns Meloidogyne incognita. The series is described as follows: Meloidogyne incognita test. The class given is in vivo. The note with it: lettuce in sand, egg/larvae suspension, 20 ppm, after 14 days. As for the experimental part: Meloidogyne incognita Test Solvent: 125.0 parts by weight of acetone To produce a suitable active compound formulation, 1 part by weight of active compound is mixed with the stated amount of solvent and the concentrate is diluted to the desired concentration with water. Vessels are filled with sand, active compound solution, an egg/larvae suspension of the southern root-knot nematode (Meloidogyne incognita) and lettuce seeds. The lettuce seeds germinate and the plants develop. The galls develop on the roots. After 14 days, the nematicidal efficacy in % is determined by the formation of galls. 100% means that no galls were found; 0% means that the number of galls on the treated plants corresponds to the untreated control.

Series [4] relates to Myzus persicae. The series is described as follows: Myzus persicae oral test. It counts as in vivo. The note with it: mixed population, oral through parafilm, 4 ppm, after 5 days. As for the experimental part:
Myzus persicae—Oral Test Solvent: 100 parts by weight of acetone To produce a suitable preparation of active compound, 1 part by weight of active compound is dissolved using the specified parts by weight of solvent and made up with water until the desired concentration is attained. 50 μl of the active compound preparation are transferred into microtitre plates and made up to a final volume of 200 μl with 150 μl of IPL41 insect medium (33%+15% sugar). Subsequently, the plates are sealed with parafilm, which a mixed population of green peach aphids (Myzus persicae) within a second microtitre plate is able to puncture and imbibe the solution through. After 5 days, the efficacy in % is determined. 100% means that all the aphids have been killed; 0% means that no aphids have been killed.

Series [5] deals with Spodoptera frugiperda. The series is described as follows: Spodoptera frugiperda spray test. The class given is in vivo. The note with it: caterpillars on maize leaf discs, 100 g/ha, after 7 days. As for the experimental part:
Spodoptera frugiperda—Spray Test Solvent: 78.0 parts by weight of acetone • • 1.5 parts by weight of dimethylformamide Emulsifier: alkylaryl polyglycol ether To produce a suitable active compound preparation, 1 part by weight of active compound is dissolved using the stated parts by weight of solvent and made up with water containing an emulsifier concentration of 1000 ppm until the desired concentration is attained. To produce further test concentrations, the formulation is diluted with emulsifier-containing water. Leaf discs of maize (Zea mays) are sprayed with an active compound formulation of the desired concentration and, after drying, populated with caterpillars of the fall armyworm (Spodoptera frugiperda). After 7 days, the efficacy in % is determined. 100% means that all the caterpillars have been killed; 0% means that no caterpillar has been killed.

For series [6], the system named is Diabrotica balteata. The series is described as follows: Diabrotica balteata spray test. The class given is in vivo. The note with it: beetle larvae on germinated wheat grains, 160 μg/cavity, after 7 days. As for the experimental part:
Diabrotica balteata—Spray Test Solvent: 78 parts by weight of acetone • • 1.5 parts by weight of dimethylformamide Emulsifier: alkylaryl polyglycol ether To produce a suitable active compound preparation, 1 part by weight of active compound is dissolved using the stated parts by weight of solvent and made up with water containing an emulsifier concentration of 1000 ppm until the desired concentration is attained. To produce further test concentrations, the formulation is diluted with emulsifier-containing water. Pre-swollen wheat grains (Triticum aestivum) are incubated in a multiwell plate filled with agar and a little water for one day (5 seed grains per cavity). The germinated wheat grains are sprayed with an active compound preparation of the desired concentration. Subsequently, each cavity is infected with 10-20 beetle larvae of Diabrotica balteata. After 7 days, the efficacy in % is determined. 100% means that all wheat plants have grown as in the untreated, uninfected control; 0% means that no wheat plant has grown.

Series [7] has as its system Myzus persicae. The series is described as follows: Myzus persicae spray test. The class given is in vivo. The note with it: Chinese cabbage leaf discs, all stages, 100 g/ha, after 5 days. As for the experimental part: Myzus persicae—Spray Test Solvent: 78 parts by weight of acetone • • 1.5 parts by weight of dimethylformamide Emulsifier: alkylaryl polyglycol ether To produce a suitable active compound preparation, 1 part by weight of active compound is dissolved using the stated parts by weight of solvent and made up with water containing an emulsifier concentration of 1000 ppm until the desired concentration is attained. To produce further test concentrations, the formulation is diluted with emulsifier-containing water. Discs of Chinese cabbage leaves (Brassica pekinensis) infested by all stages of the green peach aphid (Myzus persicae) are sprayed with an active compound formulation of the desired concentration. After 5 days, the efficacy in % is determined. 100% means that all the aphids have been killed; 0% means that no aphids have been killed.

For `Cn1c(C(F)(F)F)cc2nc(-c3nn4cc(C5(C#N)CC5)ccc4c3Br)n(C)c2c1=O`, the chromatographic logP (in general, a lipophilicity value derived from retention on a column) in series [1] is 3.37.

The compound `N#CC1(c2ccc3c(Br)c(C(=O)O)nn3c2)CC1` [3-Bromo-6-(1-cyanocyclopropyl)pyrazolo[1,5-a]pyridine-2-carboxylic Acid] registered a chromatographic logP in series [1] of 1.55.

Consider `CCS(=O)(=O)c1c(-c2nc3cc(C(F)(F)F)n(C)c(=O)c3n2C)nn2cc(C3(C#N)CC3)ccc12` [Example I-01], for which the “efficacy (kill in %)” value in series [2] came out at 97%. Moreover, in series [3], the “nematicidal efficacy (formation of galls)” value is on record as 100%. In series [4], the efficacy was 100%. In addition, the chromatographic logP in series [1] turned out to be 2.8.

Regarding `CCS(=O)(=O)c1c(-c2nc3cc(C(F)(F)F)n(C)c(=O)c3n2C)nn2cc(CC#N)ccc12` [Example I-02], the efficacy in series [4] and in series [5] was 100% throughout.

On to `CCS(=O)(=O)c1c(-c2nc3cc(C(F)(F)F)n(C)c(=O)c3n2C)nn2cc(C3CC3)ccc12` [Example I-03], for which the efficacy came out at 100% in series [6], 90% in series [7], 100% in series [4] and 100% in series [5].
